Data reported in patent US20230064983A1 (priority 2020, published 2023).
Values joined by “and” are separate entries in the source; they are usually repeats but may differ in a detail not shown here. Equal entries are not always repeated.

Experiments:
[1] = target: T1, EGFR with insertion SVD between D770 and N771 (mutEGFR D770_N771insSVD) (Homo sapiens, UniProt P00533, DUP768-770); test: Exon20-Mutant-EGFR(D770_N771insSVD) kinase assay (TR-FRET); assay type: biochemical; conditions: 2 mM ATP, Table 2
T1 construct: amino acids R669 to A1210; made in house; host or cells: Sf9 insect cells (baculovirus)

Bub1 = target: T2, Bub1 (Homo sapiens, UniProt O43683); test: Bub1 high ATP kinase assay (TR-FRET); assay type: biochemical; conditions: Bub1 high ATP (2 mM) IC50, TR-FRET, 2 mM ATP; Table 3
T2 construct: catalytic domain of human Bub1 (amino acids 704-1085); His6 (N); made in house; host or cells: insect cells (Hi5)
Excerpt: Bub1 high ATP Kinase Assay
Bub1-inhibitory activity of compounds of the present invention at a high ATP concentration was quantified employing the Bub1 TR-FRET high ATP kinase assay as described in the following paragraphs.
N-terminally His6-tagged recombinant catalytic domain of human Bub1 (amino acids 704-1085), expressed in insect cells (Hi5) and purified by Ni-NTA affinity chromatography and subsequent size exclusion chromatography, was used as enzyme. As substrate for the kinase reaction the biotinylated peptide biotin-Ahx-[…] (C-terminus in amid form) was used which can be purchased e.g. form the company Biosyntan (Berlin, Germany).
Then the kinase reaction was started by the addition of 2 μl of a solution of Bub1 in assay buffer and the resulting mixture was incubated for a reaction time of 60 min at 22° C. The concentration of Bub1 was adjusted depending of the activity of the enzyme lot and was chosen appropriate to have the assay in the linear range, a typical concentration is about 200 ng/ml. The reaction was stopped by the addition of 3 μl of a solution of TR-FRET detection reagents (0.167 μM streptavidine-XL665 [Cisbio Bioassays, Codolet, France] and 1.67 nM anti-phosho-Serine antibody [Merck Millipore, cat. #35-002] and 0.67 nM LANCE EU-W1024 labeled anti-mouse IgG antibody [Perkin-Elmer, product no. AD0077, as an alternative a Terbium-cryptate-labeled anti-mouse IgG antibody from Cisbio Bioassays can be used]) in an aqueous EDTA-solution (83.3 mM EDTA, 0.2% (w/v) bovine serum albumin in 100 mM HEPES pH 7.5).
The resulting mixture was incubated 1 h at 22° C. to allow the formation of complex between the phosphorylated biotinylated peptide and the detection reagents. Subsequently the amount of phosphorylated substrate was evaluated by measurement of the resonance energy transfer from the Eu-chelate to the streptavidine-XL. Therefore, the fluorescence emissions at 620 nm and 665 nm after excitation at 350 nm was measured in a TR-FRET reader, e.g. a Pherastar or Pherastar FS (both from BMG Labtechnologies, Offenburg, Germany) or a Viewlux (Perkin-Elmer). The ratio of the emissions at 665 nm and at 622 nm was taken as the measure for the amount of phosphorylated substrate.

Ba/F3-EGFR-WT cells = Ba/F3-EGFR-WT cells (Homo sapiens, UniProt P00533); test: Ba/F3 cell survival assay, wild type EGFR; assay type: cell-based; conditions: Cell Titer-Glo, 48 h, with 10 ng/mL EGF; Table 4; read-out: BA/F3 (wild type) IC50
[2] = target: Ba/F3-EGFR-D770_N771insSVD cells (Homo sapiens, UniProt P00533, DUP768-770, cells depend on it); test: Ba/F3 cell survival assay, EGFR D770_N771insSVD; assay type: cell-based; conditions: Cell Titer-Glo, 48 h, without IL-3; Table 4; read-out: BA/F3 (insSVD) IC50
Ba/F3-EGFR-D770_N771insSVD cells, sequence (P00533 with tags, fused parts or gaps DUP768-770): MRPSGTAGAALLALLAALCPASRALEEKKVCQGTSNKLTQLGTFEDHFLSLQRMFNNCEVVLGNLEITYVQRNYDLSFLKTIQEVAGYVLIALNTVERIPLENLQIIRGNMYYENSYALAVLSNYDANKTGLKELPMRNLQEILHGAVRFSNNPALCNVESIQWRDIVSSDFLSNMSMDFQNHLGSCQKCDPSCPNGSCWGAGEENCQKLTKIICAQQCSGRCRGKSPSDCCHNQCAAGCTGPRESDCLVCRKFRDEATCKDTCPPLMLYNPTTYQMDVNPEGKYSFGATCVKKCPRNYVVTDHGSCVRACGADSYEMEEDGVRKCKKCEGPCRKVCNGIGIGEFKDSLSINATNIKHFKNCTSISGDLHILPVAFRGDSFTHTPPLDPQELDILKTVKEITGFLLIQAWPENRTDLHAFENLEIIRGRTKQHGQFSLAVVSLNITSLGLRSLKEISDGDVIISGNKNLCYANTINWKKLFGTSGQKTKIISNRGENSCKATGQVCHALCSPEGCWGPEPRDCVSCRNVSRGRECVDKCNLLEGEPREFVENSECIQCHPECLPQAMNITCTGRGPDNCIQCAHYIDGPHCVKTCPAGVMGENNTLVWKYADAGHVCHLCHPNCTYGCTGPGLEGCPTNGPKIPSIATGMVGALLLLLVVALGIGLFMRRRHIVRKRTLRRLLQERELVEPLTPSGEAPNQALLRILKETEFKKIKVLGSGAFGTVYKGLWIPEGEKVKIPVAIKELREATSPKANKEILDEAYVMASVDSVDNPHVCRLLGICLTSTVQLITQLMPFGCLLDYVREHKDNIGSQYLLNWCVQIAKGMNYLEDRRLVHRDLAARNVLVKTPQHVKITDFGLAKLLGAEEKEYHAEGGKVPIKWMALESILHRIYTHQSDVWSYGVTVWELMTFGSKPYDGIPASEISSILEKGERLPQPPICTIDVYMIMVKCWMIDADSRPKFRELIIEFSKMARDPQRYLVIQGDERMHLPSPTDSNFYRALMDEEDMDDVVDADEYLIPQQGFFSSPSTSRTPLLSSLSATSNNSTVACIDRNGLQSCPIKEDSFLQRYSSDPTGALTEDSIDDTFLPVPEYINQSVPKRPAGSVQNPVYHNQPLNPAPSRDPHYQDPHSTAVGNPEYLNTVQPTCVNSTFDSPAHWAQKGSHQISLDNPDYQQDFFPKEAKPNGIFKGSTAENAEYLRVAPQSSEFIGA

T1 sequence (P00533 other isoform, or with tags, fused parts or gaps DUP768-770): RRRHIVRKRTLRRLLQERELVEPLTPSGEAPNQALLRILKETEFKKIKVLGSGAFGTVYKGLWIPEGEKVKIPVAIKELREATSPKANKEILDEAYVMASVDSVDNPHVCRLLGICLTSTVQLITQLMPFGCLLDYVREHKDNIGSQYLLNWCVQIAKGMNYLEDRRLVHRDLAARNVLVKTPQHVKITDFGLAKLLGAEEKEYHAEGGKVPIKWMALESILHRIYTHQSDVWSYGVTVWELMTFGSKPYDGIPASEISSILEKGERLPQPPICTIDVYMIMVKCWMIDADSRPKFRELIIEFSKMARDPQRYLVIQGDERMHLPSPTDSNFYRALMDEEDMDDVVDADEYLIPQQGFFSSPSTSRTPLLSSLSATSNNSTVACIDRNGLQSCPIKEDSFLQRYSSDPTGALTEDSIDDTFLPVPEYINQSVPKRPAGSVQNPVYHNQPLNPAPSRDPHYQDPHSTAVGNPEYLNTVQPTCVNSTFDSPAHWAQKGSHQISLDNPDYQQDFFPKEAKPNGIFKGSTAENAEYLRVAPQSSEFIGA
Ba/F3-EGFR-WT cells, sequence (P00533 whole entry, looked up, stated change not applied): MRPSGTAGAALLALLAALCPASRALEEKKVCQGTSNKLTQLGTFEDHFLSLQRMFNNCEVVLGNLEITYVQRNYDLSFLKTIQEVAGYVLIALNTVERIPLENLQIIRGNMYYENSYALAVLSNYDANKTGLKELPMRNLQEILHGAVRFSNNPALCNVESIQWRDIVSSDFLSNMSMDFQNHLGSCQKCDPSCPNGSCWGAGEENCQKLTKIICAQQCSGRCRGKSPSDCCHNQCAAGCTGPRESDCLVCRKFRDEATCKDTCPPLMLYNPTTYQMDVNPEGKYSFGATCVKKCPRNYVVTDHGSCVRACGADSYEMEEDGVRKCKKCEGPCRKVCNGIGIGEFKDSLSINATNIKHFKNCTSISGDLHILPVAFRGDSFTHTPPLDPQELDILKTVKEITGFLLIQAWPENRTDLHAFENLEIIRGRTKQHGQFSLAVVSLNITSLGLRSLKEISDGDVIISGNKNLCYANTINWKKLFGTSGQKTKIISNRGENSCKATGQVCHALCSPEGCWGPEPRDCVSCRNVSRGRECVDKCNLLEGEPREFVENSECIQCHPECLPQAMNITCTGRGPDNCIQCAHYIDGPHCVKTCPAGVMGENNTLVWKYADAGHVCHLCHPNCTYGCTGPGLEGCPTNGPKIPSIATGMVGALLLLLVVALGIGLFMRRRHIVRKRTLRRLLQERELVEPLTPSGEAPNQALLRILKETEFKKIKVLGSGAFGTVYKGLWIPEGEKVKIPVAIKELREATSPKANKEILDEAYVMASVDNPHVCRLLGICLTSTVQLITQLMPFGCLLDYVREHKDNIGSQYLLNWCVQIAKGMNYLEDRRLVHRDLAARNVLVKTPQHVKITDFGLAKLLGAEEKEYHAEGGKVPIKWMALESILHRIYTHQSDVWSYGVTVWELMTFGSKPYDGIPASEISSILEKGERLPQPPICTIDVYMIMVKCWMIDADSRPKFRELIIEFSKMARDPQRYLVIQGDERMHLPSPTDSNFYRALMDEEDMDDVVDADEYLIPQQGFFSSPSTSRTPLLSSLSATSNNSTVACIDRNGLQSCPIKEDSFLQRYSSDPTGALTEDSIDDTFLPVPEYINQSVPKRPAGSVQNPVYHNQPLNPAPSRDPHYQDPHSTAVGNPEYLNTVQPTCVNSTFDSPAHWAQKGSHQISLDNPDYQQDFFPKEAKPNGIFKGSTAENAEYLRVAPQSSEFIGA
T2 sequence (O43683 704-1085): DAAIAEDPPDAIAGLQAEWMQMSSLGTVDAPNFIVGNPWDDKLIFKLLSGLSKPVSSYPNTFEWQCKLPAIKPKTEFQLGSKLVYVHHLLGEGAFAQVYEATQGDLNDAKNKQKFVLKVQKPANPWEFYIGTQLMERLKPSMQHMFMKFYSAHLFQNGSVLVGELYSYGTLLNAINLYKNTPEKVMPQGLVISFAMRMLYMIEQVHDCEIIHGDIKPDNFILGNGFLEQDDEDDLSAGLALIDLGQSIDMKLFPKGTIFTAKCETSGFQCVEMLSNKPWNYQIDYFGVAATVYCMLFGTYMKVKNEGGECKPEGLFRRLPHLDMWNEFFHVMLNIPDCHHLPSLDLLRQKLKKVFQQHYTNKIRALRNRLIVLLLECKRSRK

Row | SMILES | mutEGFR (D770_N771insSVD) kinase assay IC50 [1] | IC50 (Bub1) | GI50 (Ba/F3-EGFR-WT cells) | GI50 [2]
1 | Cc1c(Cl)cccc1Nc1c(-c2ccncc2OCC2CCCCO2)[nH]c2c1C(=O)NCC2C (single isomer, unassigned) [Example 118, 3-(3-chloro-2-methyl-anilino)-7-methyl-2-[3-(tetrahydropyran-2-ylmethoxy)-4-pyridyl]-1,5,6,7-tetrahydropyrrolo[3,2-c]pyridin-4-one] | 0.000431 µM | > 20 µM and 19.4 µM | 0.938 µM | 0.0223 µM
2 | COc1c(Cl)cccc1Nc1c(-c2ccncc2OCC2COC(C)(C)CO2)[nH]c2c1C(=O)N[C@H](C)C2 (mixture of isomers) [Example 77, (6R)-3-(3-chloro-2-methoxy-anilino)-2-{3-[(5,5-dimethyl-1,4-dioxan-2-yl)methoxy]-4-pyridyl}-6-methyl-1,5,6,7-tetrahydropyrrolo[3,2-c]pyridin-4-one] | 0.00015 µM | > 20 µM | 3.2 µM | 0.0153 µM
3 | COc1c(Cl)cccc1Nc1c(-c2ccncc2OCC2OCCCC2(F)F)[nH]c2c1C(=O)N[C@H](C)C2 (single isomer, unassigned) [Example 75] | 0.000104 µM | 11.1 µM | 0.264 µM | 0.0182 µM
4 | COc1c(Cl)cccc1Nc1c(-c2ccncc2OCC2COC(C)(C)CO2)[nH]c2c1C(=O)N[C@H](C)C2 (single isomer, unassigned) [Example 78] | 0.00026 µM | > 20 µM | 0.488 µM | 0.0207 µM
5 | COc1c(Cl)cccc1Nc1c(-c2ccncc2OCC2CCCCO2)[nH]c2c1C(=O)NCC2C (single isomer, unassigned) [Example 46, 3-(3-chloro-2-methoxy-anilino)-7-methyl-2-[3-(tetrahydropyran-2-ylmethoxy)-4-pyridyl]-1,5,6,7-tetrahydropyrrolo[3,2-c]pyridin-4-one] | 0.00117 µM | > 20 µM | 2.75 µM | 0.125 µM
6 | COc1c(Cl)cccc1Nc1c(-c2ccncc2OC[C@@H]2CCCO2)[nH]c2c1C(=O)NCC2CCC(F)(F)F (single isomer, unassigned) [Example 99] | 0.00072 µM | > 20 µM | 0.846 µM | 0.0459 µM
7 | COc1c(Cl)cccc1Nc1c(-c2ccncc2OCC2COC(C)(C)CO2)[nH]c2c1C(=O)NC1(CCC1)C2 (single isomer, unassigned) [Example 130, 3′-(3-chloro-2-methoxyanilino)-2′-{3-[(5,5-dimethyl-1,4-dioxan-2-yl)methoxy]pyridin-4-yl}-1′,7′-dihydrospiro[cyclobutane-1,6′-pyrrolo[3,2-c]pyridin]-4′(5′H)-one] | 0.000256 µM | 0.768 µM | 0.418 µM | 0.00801 µM
8 | COc1c(Cl)cccc1Nc1c(-c2ccncc2OC[C@@H]2CCCO2)[nH]c2c1C(=O)NC(C(F)(F)F)C2 (single isomer, unassigned) [Example 39] | 0.0188 µM | > 20 µM | 4.12 µM | 0.786 µM and > 1 µM
9 | COc1c(Cl)cccc1Nc1c(-c2ccncc2OCC(C)(C)OC)[nH]c2c1C(=O)N[C@@H](C)C2 [Example 2, (6S)-3-(3-chloro-2-methoxyanilino)-2-[3-(2-methoxy-2-methylpropoxy)pyridin-4-yl]-6-methyl-1,5,6,7-tetrahydro-4H-pyrrolo[3,2-c]pyridin-4-one] | 0.000235 µM | 0.393 µM | 0.575 µM | 0.0646 µM
10 | COc1c(Cl)cccc1Nc1c(-c2ccncc2OCC2COC(C)(C)CO2)[nH]c2c1C(=O)NCC2C (single isomer, unassigned) [Example 94, 3-(3-chloro-2-methoxy-anilino)-2-{3-[(5,5-dimethyl-1,4-dioxan-2-yl)methoxy]-4-pyridyl}-7-methyl-1,5,6,7-tetrahydropyrrolo[3,2-c]pyridin-4-one] | 0.000631 µM | > 20 µM | 1.08 µM | 0.0666 µM
11 | COc1c(Cl)cccc1Nc1c(-c2ccncc2OCC2CCCCO2)[nH]c2c1C(=O)NCC2C (single isomer, unassigned) [Example 45, 3-(3-chloro-2-methoxy-anilino)-7-methyl-2-[3-(tetrahydropyran-2-ylmethoxy)-4-pyridyl]-1,5,6,7-tetrahydropyrrolo[3,2-c]pyridin-4-one] | 0.000391 µM | > 20 µM | 0.84 µM | 0.0473 µM
12 | Cc1c(Cl)cccc1Nc1c(-c2ccncc2OCC2CCCCO2)[nH]c2c1C(=O)NCC2C (single isomer, unassigned) [Example 119, 3-(3-chloro-2-methyl-anilino)-7-methyl-2-[3-(tetrahydropyran-2-ylmethoxy)-4-pyridyl]-1,5,6,7-tetrahydropyrrolo[3,2-c]pyridin-4-one] | 0.000324 µM | 1.52 µM | 1.29 µM | 0.0547 µM
13 | COc1c(Cl)cccc1Nc1c(-c2ccncc2OCC2COCCO2)[nH]c2c1C(=O)NCC2C (single isomer, unassigned) [Example 35, 3-(3-chloro-2-methoxy-anilino)-2-[3-(1,4-dioxan-2-ylmethoxy)-4-pyridyl]-7-methyl-1,5,6,7-tetrahydropyrrolo[3,2-c]pyridin-4-one] | 0.000272 µM | 12.4 µM | 0.811 µM | 0.0541 µM
14 | COc1c(Cl)cccc1Nc1c(-c2ccncc2OCC2COC(C)(C)CO2)[nH]c2c1C(=O)NC1(CC1)C2 (single isomer, unassigned) [Example 134, 3′-(3-chloro-2-methoxyanilino)-2′-(3-{[5,5-dimethyl-1,4-dioxan-2-yl]methoxy}pyridin-4-yl)-1′,7′-dihydrospiro[cyclopropane-1,6′-pyrrolo[3,2-c]pyridin]-4′(5′H)-one] | 0.000179 µM | 1.16 µM | 0.718 µM | 0.0928 µM
15 | COc1c(Cl)cccc1Nc1c(-c2ccncc2OCC2OCCC2(F)F)[nH]c2c1C(=O)N[C@H](C)C2 (mixture of isomers) [Example 71, (6R)-3-(3-chloro-2-methoxy-anilino)-2-{3-[(3,3-difluorotetrahydrofuran-2-yl)methoxy]-4-pyridyl}-6-methyl-1,5,6,7-tetrahydropyrrolo[3,2-c]pyridin-4-one] | 0.000186 µM | 5.74 µM | 0.731 µM | 0.0429 µM
16 | COc1c(Cl)cccc1Nc1c(-c2ccncc2OC[C@@H]2CN(C)CCO2)[nH]c2c1C(=O)N[C@H](C)C2 [Example 11, (6R)-3-(3-chloro-2-methoxyanilino)-6-methyl-2-(3-{[(2S)-4-methylmorpholin-2-yl]methoxy}pyridin-4-yl)-1,5,6,7-tetrahydro-4H-pyrrolo[3,2-c]pyridin-4-one] | 0.000179 µM | > 20 µM | 0.264 µM | 0.0178 µM
17 | COc1c(Cl)cccc1Nc1c(-c2ccncc2OCC(C)OC)[nH]c2c1C(=O)N[C@H](C)C2 (single isomer, unassigned) [Example 82] | 0.000143 µM | 2.71 µM | 0.248 µM | 0.0139 µM
18 | COc1c(F)cccc1Nc1c(-c2ccncc2OC[C@@H]2CCCO2)[nH]c2c1C(=O)NC(C)C2 (mixture of isomers) [Example 8, 3-(3-fluoro-2-methoxyanilino)-6-methyl-2-(3-{[(2S)-oxolan-2-yl]methoxy}pyridin-4-yl)-1,5,6,7-tetrahydro-4H-pyrrolo[3,2-c]pyridin-4-one] | 0.000246 µM | 12.8 µM and 9.72 µM and > 20 µM | 0.623 µM | 0.0733 µM
